# Test results: PMC5217299, “Triptolide Induces hepatotoxicity via inhibition of CYP450s in Rat liver microsomes” (BMC Complementary and Alternative Medicine, 2017)
# Tested on: T1, CYP3A
# T1 construct: gene Cyp3a1; native isoenzyme mixture in liver microsomes of female SD rats
# Test: UHPLC-MS/MS of 1-hydroxymidazolam formation, cocktail probe, Michaelis-Menten fit
# Settings: liver microsomes of vehicle control rats; cocktail of six substrates together; NADPH regeneration system, pH 7.4, 37 °C
smiles,measurement,value
Cc1ncc2n1-c1ccc(Cl)cc1C(c1ccccc1F)=NC2 [midazolam],Km,1.99 ± 0.267 µM
